# Assay results from the OPERA property sets (Mansouri et al. 2018).
# Settings: not given
row,SMILES,solubility
1,S=c1[nH]cnc2[nH]cnc12,450 mM
2,CC1=C2[C@H]3OC(=O)[C@@H](C)[C@@H]3CC[C@@]2(C)C=CC1=O,0.812 mM
3,NC(=O)c1cc(Cl)cc(Cl)c1N,8.29 mM
4,Nc1nc(=O)c2[nH]c(=O)c(=O)[nH]c2[nH]1,0.00683 mM
5,CN(C)C(=O)OC1=CC(=O)CC(C)(C)C1,142 mM
6,CCc1cccc(CC)c1N,4.49 mM
7,CCCCOc1ccc(C(=O)OCCN(CC)CC)cc1,0.13 mM
8,CCOP(=S)(OCC)OCCSCC,0.232 mM
9,Cc1cccc(Br)c1,0.3 mM
10,CC1CCC(C)O1 (stereo not drawn),1180 mM
11,CC(C)OC(=O)COc1ccc(Cl)cc1Cl,0.142 mM
12,O=C(O)c1ccc(Br)cc1,0.298 mM

# Same assay, conditions: 20 °C
row,SMILES,solubility
1,CC(Cl)C(C)Cl (stereo not drawn),4.42 mM
2,CCc1ccc(CC)cc1,0.185 mM
3,Nc1cnn(-c2ccccc2)c(=O)c1Cl,1.8 mM
4,Clc1ccc2c(c1)Oc1cc(Cl)c(Cl)c(Cl)c1O2,1.34e-06 mM
5,O=[N+]([O-])c1c(O)ccc2ccccc12,1.06 mM
6,CC(C)Cl,39.5 mM
7,CN(C)C(=O)Nc1ccc(Oc2ccc(Cl)cc2)cc1,0.0127 mM
8,OCCCCl,2640 mM
9,CCCI,6.3 mM
10,O=C(O)CCCCCCCCCCC(=O)O,0.174 mM
11,CC(C)I,8.24 mM
12,CC(C)OC(=O)C(C)N(C(=O)c1ccccc1)c1ccc(F)c(Cl)c1 (stereo not drawn),0.0373 mM
13,Cc1cc(Cl)ccc1N=CN(C)C,1.37 mM
14,CCSc1nc(NC(C)C)nc(NC(C)C)n1,0.0626 mM
15,CC(C)(O)C(Cl)(Cl)Cl,45.1 mM
16,CCC(Cl)[N+](=O)[O-] (stereo not drawn),64.8 mM
17,Clc1ccc(-c2ccc(Cl)c(Cl)c2Cl)cc1,0.000133 mM
18,Clc1ccc(Cl)c(-c2cc(Cl)c(Cl)c(Cl)c2Cl)c1,2.09e-05 mM
19,O=c1ccc2ccccc2o1,13 mM
20,Oc1cc(O)ncn1,22.3 mM
21,O=C(O)c1ccccc1C(c1ccc(O)cc1)c1ccc(O)cc1,0.546 mM
22,O=C(O)c1cnc(O)nc1O,11.5 mM
23,Cc1nc(NS(=O)(=O)c2ccc(N)cc2)oc1C,6.27 mM
24,CC(CCl)OC(C)CCl (stereo not drawn),9.94 mM

row,SMILES,solubility
1,O=c1c(O)c(-c2ccc(O)cc2O)oc2cc(O)cc(O)c12,0.827 mM
2,CCCOC(=O)c1ccccc1C(=O)OCCC,0.432 mM
3,CC1CCCC(=O)C1 (stereo not drawn),13.4 mM
4,COP(=S)(OC)SCc1nc(N)nc(N)n1,0.853 mM
5,CCOP(=S)(OCC)Oc1ccc(S(C)=O)cc1 (stereo not drawn),6.49 mM
6,Clc1ccc(-c2ccc(Cl)c(Cl)c2)cc1,0.000279 mM
7,Clc1cc2c(cc1Cl)Oc1c(Cl)c(Cl)c(Cl)c(Cl)c1O2,1.13e-08 mM
8,O=C(O)Cn1c(=O)sc2cccc(Cl)c21,2.46 mM
9,COc1ccc(C(=O)c2cccc(C)c2)cc1C,0.00832 mM
10,OCCN(CCO)c1ccccc1,184 mM
11,Oc1ccc(/N=N/c2ccccc2)cc1,0.454 mM
12,CCC1CCCCC1,0.0561 mM
13,CC(=NO)C(C)=NO,5.17 mM
14,CN(C)C(=O)NC1CCCCCCC1,6.05 mM
15,Oc1nc(O)c2nccnc2n1,7.62 mM
16,O=c1[nH]c(=O)c2[nH]c(=O)[nH]c2[nH]1,0.353 mM
17,N#CCC(N)=O,1550 mM
18,C=CC1CN2CCC1CC2C(=O)c1ccnc2ccc(OC)cc12 (stereo not drawn),0.0093 mM
19,Clc1ccc(-c2c(Cl)cc(Cl)c(Cl)c2Cl)cc1Cl,2.24e-05 mM
20,COc1ccc(C=O)c(C(=O)O)c1OC,11.9 mM
21,O=C(O)C=Cc1ccco1,14.5 mM
22,Nc1ccc2cc3ccc(N)cc3nc2c1,2390 mM
23,CCCC1(CCC)C(=O)NC(=O)NC1=O,2.83 mM

# Same assay, conditions: 21 °C
row,SMILES,solubility
1,CC12CCC(CC1)C(C)(C)O2,17.2 mM

# Same assay, conditions: 22 °C
row,SMILES,solubility
1,CC(Oc1ccccc1Cl)C(=O)O (stereo not drawn),5.98 mM
2,COC(=O)[C@@H]1C2CCC(C[C@@H]1OC(=O)c1ccccc1)N2C (stereo partly drawn),5.93 mM
3,O=C(O)[C@@H](O)[C@H](O)[C@H](O)[C@@H](O)C(=O)O,229 mM
4,CCSC(=O)N(CC(C)C)CC(C)C,0.207 mM
5,Cc1cc(=O)[nH]c(=O)[nH]1,55.5 mM
6,CCOP(=S)(OCC)N1C(=O)c2ccccc2C1=O,0.444 mM
7,CC(=O)c1ccc(O)cc1,72.7 mM
8,OC[C@@H](O)[C@@H](O)CO,4990 mM

# Same assay, conditions: 23 °C
row,SMILES,solubility
1,Nc1ccc(C(=O)O)c(O)c1,11 mM

# Same assay, conditions: 24 °C
row,SMILES,solubility
1,CC(C)CC(=O)CC(C)C,18.6 mM
2,CCNP(=S)(OC)O/C(C)=C/C(=O)OC(C)C (stereo not drawn),0.391 mM
3,CN1CCCC(CN2c3ccccc3Sc3ccccc32)C1 (stereo not drawn),0.018 mM
4,O=P(OC(CCl)CCl)(OC(CCl)CCl)OC(CCl)CCl,0.0162 mM
5,O=C(O)c1ccc(O)c(C(=O)O)c1,1.65 mM
6,CC1CCCCC1C (stereo not drawn),0.0748 mM

# Same assay, conditions: 25 °C
row,SMILES,solubility
1,CC(C)(C)CC(=O)OCC(=O)[C@@]1(O)CC[C@H]2[C@@H]3CCC4=CC(=O)CC[C@]4(C)[C@H]3[C@@H](O)C[C@@]21C,0.00308 mM
2,OCc1ccccc1,370 mM
3,FC(F)(F)C(F)(F)F,0.0564 mM
4,CCc1ccc2ccccc2c1,0.0513 mM
5,CC(C)C(=O)C(C)C,49.9 mM
6,CCCCC(C)CC (stereo not drawn),0.00693 mM
7,Cc1cccc(O)c1C,37.4 mM
8,O=C(O)c1cc(I)cc(I)c1O,0.493 mM
9,CCOC(=S)SSC(=S)OCC,0.0114 mM
10,Cc1ccc(-c2ccccc2)cc1,0.0241 mM
11,NCCC(=O)O,6120 mM
12,C=C(C)CCC,0.927 mM
13,Cc1ccc2cc(C)ccc2c1,0.0128 mM
14,CCCCCCCCN,1.55 mM
15,c1ccc(-c2ccccc2-c2ccccc2)cc1,0.00538 mM
16,Clc1ccc(-c2ccc(Cl)c(Cl)c2)cc1Cl,1.95e-06 mM
17,CC(=O)OCC(C)C,54.2 mM
18,CCOP(=O)(OCC)OCC,2740 mM
19,CCC(C)c1ccc(O)cc1 (stereo not drawn),6.39 mM
20,O=C(O)c1ccc([N+](=O)[O-])cc1[N+](=O)[O-],85.8 mM
21,c1cnc2c(c1)ccc1cccnc12,14.9 mM
22,C=CCC1(C(C)CCC)C(=O)NC(=S)NC1=O (stereo not drawn),0.348 mM

row,SMILES,solubility
1,Clc1cccc(Cl)c1-c1ccccc1,0.0108 mM
2,ClCC1CO1 (stereo not drawn),712 mM
3,CC(C)C(C)C,0.261 mM
4,CC=CC(C)O (stereo not drawn),1040 mM
5,C#CCCCCCC#C,1.04 mM
6,C[C@]12CCc3c(ccc4cc(O)ccc34)[C@@H]1CCC2=O,0.00571 mM
7,CC(=O)O[C@@H](C(=O)O)c1ccccc1,58.7 mM
8,O=C(O)c1cccc(Cl)c1[N+](=O)[O-],2.33 mM
9,C#CCC,53.1 mM
10,c1ccc2c(c1)Oc1ccccc1O2,0.00489 mM
11,C1=CCCC1,7.85 mM
12,O=C1NC(=O)c2ccccc21,2.45 mM
13,CC(=O)C(C)(C)C,190 mM
14,CCc1ccc(O)cc1,33.5 mM
15,Clc1ccc(-c2cc(Cl)ccc2Cl)cc1,0.000555 mM
16,Clc1cc(Cl)c(-c2c(Cl)cc(Cl)cc2Cl)c(Cl)c1,1.13e-06 mM
17,O=C(O)CNC(=O)c1ccccc1,20.9 mM
18,C=CC1CC=CCC1 (stereo not drawn),0.462 mM
19,C[C@@H](O)C(N)=O,8780 mM
20,Nc1ccc(S(=O)(=O)Nc2ncccn2)cc1,0.308 mM
21,Cc1ccc(C)nc1,1530 mM
22,C#CCCCCCC,0.218 mM

row,SMILES,solubility
1,CCOC(=O)c1ccccc1,4.79 mM
2,Fc1ccccc1CCl,2.88 mM
3,O=C(O)c1ccccc1,24.8 mM
4,Fc1cc(F)c(F)c(F)c1,4.95 mM
5,Clc1cc(Cl)c(-c2ccccc2)c(Cl)c1,0.000978 mM
6,CC(C)(C)C(=O)OCC(=O)[C@@]1(O)CC[C@H]2[C@@H]3CCC4=CC(=O)C=C[C@]4(C)[C@H]3[C@@H](O)C[C@@]21C,0.0261 mM
7,c1ccc2[nH]ccc2c1,30.4 mM
8,C=CCCCC=C,0.458 mM
9,C=CCCBr,5.66 mM
10,S=C=NCc1ccccc1,0.73 mM
11,CCCCCCOC(C)=O,3.54 mM
12,Clc1ccc(-c2ccccc2)c(Cl)c1,0.00515 mM
13,C1CCCC1,2.22 mM
14,O=C(O)C(c1ccccc1)c1ccccc1,0.598 mM
15,Fc1ccccc1Cl,3.84 mM
16,ClCBr,129 mM
17,NC(=O)CC[C@H](N)C(=O)O,283 mM
18,CCCCC(C)C,0.0253 mM
19,N[C@@H](Cc1cnc[nH]1)C(=O)O,294 mM
20,C(=C\c1ccccc1)/c1ccccc1,0.00161 mM
21,CCCCCCCCl,0.101 mM
22,CCC#CCC,6.8 mM

row,SMILES,solubility
1,CC(C)(C)C(=O)C1C(=O)c2ccccc2C1=O,0.0782 mM
2,Cc1ccnc2c1ccc1c(C)ccnc12,0.107 mM
3,O=C1NCCN1c1ncc([N+](=O)[O-])s1,0.607 mM
4,COP(=O)(Oc1ccccc1)Oc1ccccc1,7.57 mM
5,O=C(O)c1ccccc1F,51.4 mM
6,c1ccc2c(c1)CCN2,90.6 mM
7,O=C1CCCCC1,255 mM
8,C1CCC2CCCCC2C1 (stereo not drawn),0.00643 mM
9,CCOC(=O)CC#N,177 mM
10,ClCCCCl,24.3 mM
11,Cc1ccc(S(N)(=O)=O)cc1,18.4 mM
12,C=C(c1ccccc1)c1ccccc1,0.0366 mM
13,CN1CC(O)N(c2nnc(C(C)(C)C)s2)C1=O (stereo not drawn),13.3 mM
14,CC(C)C(O)C(C)C,60.2 mM
15,CC(C)OC(C)(C)C,4.3 mM
16,C=CCCC,2.11 mM
17,CCc1cccs1,2.6 mM
18,Fc1ccccc1Br,2.01 mM
19,S=C=Nc1cccc(Br)c1,0.0822 mM
20,C=CCCCCCCC,0.00887 mM
21,O=C(O)c1ccsc1,33.6 mM
22,Clc1ccc(Cl)c(-c2c(Cl)ccc(Cl)c2Cl)c1Cl,1.25e-05 mM

# Same assay, conditions: 27 °C
row,SMILES,solubility
1,Cc1c(C)c2c3ccccc3ccc2c2ccccc12,9.75e-05 mM
2,Cc1cc2c3ccccc3ccc2c2ccccc12,0.000268 mM

# Same assay, conditions: 30 °C
row,SMILES,solubility
1,CC1=CC(=O)c2ccccc2C1=O,0.929 mM
2,CC(=O)Nc1nnc(S(N)(=O)=O)s1,4.41 mM
3,C/C=C/C=C/C(=O)O,22.3 mM
4,C#CC=C,34.3 mM
5,COc1ccc2ccc(=O)oc2c1CC=C(C)C,0.0491 mM
6,CCN(CC)CCOC(=O)c1ccc(N)cc1,40 mM
7,ClC(Cl)Br,18.5 mM
8,Cc1cccc([N+](=O)[O-])c1,3.65 mM
